Values of other authors, collected in patent publication US20090269405A1, “ENZYME MEDIATED DELIVERY SYSTEM” (Appian Labs, LLC, priority 2008, published 2009).
Read-outs that look alike come from different tables or passages of the source.

Experiments:
[1] = chronic oral, 100 mg bid

| SMILES | onset of musculoskeletal toxicity (severe events) (25 mg daily) [days] | onset of musculoskeletal toxicity (severe events) (75 mg twice daily) [days] | patients who developed abdominal aortic aneurysms [1] |
| --- | --- | --- | --- |
| CNC(=O)[C@@H](NC(=O)[C@H](CC(C)C)[C@H](O)C(=O)NO)C(C)(C)C [Marimastat] | 199 | 56 | – |
| C[C@H]1c2cccc(O)c2C(=O)C2=C(O)[C@]3(O)C(=O)C(C(N)=O)=C(O)[C@@H](N(C)C)[C@@H]3[C@@H](O)[C@@H]21 [doxycycline] | – | – | five out of 33 |
